Patent publication US20040185460A1, “Novel mixed lineage kinase (7) (mlk7) polypeptide polynucleotides encoding the same and methods of use thereof” (priority 2001, published 2004)

Test system: baculoviral human GST-MLK7KD and GST-MLK7KD/LZ
Conditions: data not shown; shows requirement for metal ions (Mg+2)

Question: Which “activities of GST-MLK7KD and GST-MLK7KD/LZ” value does the source give for `O=C(O)CN(CCN(CC(=O)O)CC(=O)O)CC(=O)O` [EDTA] here?
Answer: Its value is “inhibited”.
